Results as given in patent US11702404B2, “GLP-1R modulating compounds” (priority 2019, dated 2023).
Like-named read-outs stand apart in the source and are kept apart here.

Experiments:
[1] = Microsomal stability, human liver microsomes (predicted hepatic clearance); settings: predicted from in vitro microsomal stability data
GLP-1R = GLP-1R (Homo sapiens, UniProt P43220); test: GLP-1R activation: cAMP increase in CHO cells stably expressing GLP-1R; assay type: cell-based
[2] = cAMP increase, CHO cells stably expressing GLP-1R, 10 point dose response, 30 minutes incubation, read-out: EC50

Sequence of GLP-1R (P43220 24-463): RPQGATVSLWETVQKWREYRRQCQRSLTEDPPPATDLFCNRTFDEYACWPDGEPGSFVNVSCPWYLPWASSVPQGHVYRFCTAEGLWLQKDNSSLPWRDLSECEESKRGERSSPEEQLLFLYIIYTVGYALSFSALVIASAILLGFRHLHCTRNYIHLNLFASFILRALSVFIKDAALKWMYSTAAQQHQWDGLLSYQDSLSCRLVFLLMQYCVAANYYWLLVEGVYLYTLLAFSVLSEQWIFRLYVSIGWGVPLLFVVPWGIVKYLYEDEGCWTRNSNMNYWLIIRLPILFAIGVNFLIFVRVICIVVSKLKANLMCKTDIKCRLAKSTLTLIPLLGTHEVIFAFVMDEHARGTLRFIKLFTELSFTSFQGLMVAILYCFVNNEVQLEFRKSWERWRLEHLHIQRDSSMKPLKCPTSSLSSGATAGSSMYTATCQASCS

Row | SMILES | Predicted Hepatic Clearance (Pred. Cl.) [1] | EC50 (GLP-1R; [2]) | EC50 (GLP-1R; EC50 (nM)) | EC50 (GLP-1R; read-out: EC50)
1 | COCCn1c(Cc2cc(F)c(-c3cccc(OCc4ccc(F)cc4C)n3)cc2F)nc2ccc(C(=O)O)cc21 [Example 816] | 9.5 mL/min/kg | 1 nM | – | –
2 | COCCn1c(Cc2cc(F)c(-c3cccc(OCc4ccc(CC#N)cc4)n3)cc2F)nc2ccc(C(=O)O)cc21 [Example 817] | 9 mL/min/kg | 10.3 nM | – | –
3 | COCCn1c(Cc2cc(F)c(-c3cccc(OCc4ccc(F)cc4Cl)n3)cc2F)nc2ccc(C(=O)O)cc21 [Example 818] | 6 mL/min/kg | 4.3 nM | – | –
4 | O=C(O)c1ccc2nc(Cc3cc(F)c(-c4cccc(OCc5ccc(Cl)cc5)n4)cc3F)n(Cc3ncco3)c2c1 [Example 819] | 3.17 mL/min/kg | 0.86 nM | – | –
5 | COCCn1c(Cc2cc(F)c(-c3cccc(OCc4ccc(C#N)nc4)n3)cc2F)nc2ccc(C(=O)O)cc21 [Example 820] | 2.67 mL/min/kg | – | 11.5 nM | –
6 | COCCn1c(Cc2cc(F)c(-c3cccc(OCc4ccc(Cl)nc4C)n3)cc2F)nc2ccc(C(=O)O)cc21 [Example 821] | 2.67 mL/min/kg | 14.8 nM | – | –
7 | COCCn1c(Cc2cc(F)c(-c3cccc(OCc4ccc(C)nc4F)n3)cc2F)nc2ccc(C(=O)O)cc21 [Example 822] | 1.83 mL/min/kg | 3.49 nM | – | –
8 | COCCn1c(Cc2cc(F)c(-c3cccc(OCc4ccc(Cl)nc4F)n3)cc2F)nc2ccc(C(=O)O)cc21 [Example 823] | 1.83 mL/min/kg | 19.8 nM | – | –
9 | COC(=O)N1CC(Cn2c(Cc3cc(F)c(-c4cccc(OCc5ccc(C#N)cc5F)n4)cc3F)nc3ccc(C(=O)O)cc32)(OC)C1 [Example 824] | 7.67 mL/min/kg | 197 nM | – | –
10 | COCCn1c(Cc2cc(F)c(-c3cccc(OCc4ccc(C(N)=O)nc4)n3)cc2F)nc2c(F)cc(C(=O)O)cc21 [Example 825] | 1.83 mL/min/kg | 9.09 nM | – | –
11 | NC(=O)c1ccc(COc2cccc(-c3cc(F)c(Cc4nc5ccc(C(=O)O)cc5n4C[C@@H]4CCO4)cc3F)n2)cn1 [Example 826] | 3.67 mL/min/kg | 0.28 nM | – | –
12 | N#Cc1ccc(COc2cccc(-c3cc(F)c(Cc4nc5ccc(C(=O)O)cc5n4CCOCC(F)(F)F)cc3F)n2)c(F)c1 [Example 827] | 7.17 mL/min/kg | 1.97 nM | – | –
13 | N#Cc1ccc(COc2cccc(-c3cc(F)c(Cc4nc5ccc(C(=O)O)cc5n4CCOCC(F)F)cc3F)n2)c(F)c1 [Example 828] | 8.5 mL/min/kg | 3.5 nM | – | –
14 | O=C(O)c1ccc2nc(Cc3ccc(-c4cccc(OCc5ccc(C(F)F)cc5F)n4)cc3F)n(C[C@@H]3CCO3)c2c1 [Example 829] | 1.83 mL/min/kg | 0.18 nM | – | –
15 | N#Cc1ccc(COc2cccc(-c3cc(F)c(Cc4nc5ccc(C(=O)O)cc5n4CCOc4ccccc4)cc3F)n2)c(F)c1 [Example 830] | 2.5 mL/min/kg | 448 nM | – | –
16 | N#Cc1ccc(COc2cccc(-c3cc(F)c(Cc4nc5c(F)cc(C(=O)O)cc5n4C[C@@H]4CCCO4)cc3F)n2)c(F)c1 [Example 831] | 2.83 mL/min/kg | 0.24 nM | – | –

Row | SMILES | Predicted Hepatic Clearance (Pred. Cl.) [1] | EC50 (GLP-1R; [2]) | EC50 (GLP-1R; EC50 (nM)) | EC50 (GLP-1R; read-out: EC50)
17 | Cc1csc(NCCn2c(Cc3cc(F)c(-c4ccnc(OCc5ccc(C#N)cc5F)n4)cc3F)nc3ccc(C(=O)O)cc32)n1 [Example 832] | 14.3 mL/min/kg | – | – | 2330 nM
18 | CC(C1CCCO1)n1c(Cc2cc(F)c(-c3cccc(OCc4ccc(C#N)cc4F)n3)cc2F)nc2ccc(C(=O)O)cc21 (stereo not shown) [Example 833] | 9.83 mL/min/kg | 6.41 nM | – | –
19 | N#Cc1ccc(COc2cccc(-c3ccc(Cc4nc5ccc(C(=O)O)cc5n4C[C@@H]4CCCO4)cc3F)n2)c(F)c1 [Example 834] | 6.33 mL/min/kg | 0.69 nM | – | –
20 | N#Cc1ccc(COc2cccc(-c3cc(F)c(Cc4nc5ccc(C(=O)O)cc5n4CCNc4ccccn4)cc3F)n2)c(F)c1 [Example 835] | 11.2 mL/min/kg | – | – | 515 nM
21 | COCCn1c(Cc2cc(F)c(-c3cccc(OCc4ccc(C#N)cc4F)n3)cc2F)nc2cc(OC)c(C(=O)O)cc21 [Example 836] | 1.83 mL/min/kg | 9.29 nM | – | –
22 | COCCn1c(Cc2cc(F)c(-c3cccc(OCc4ccc(C#N)cc4F)n3)cc2F)nc2cc(Cl)c(C(=O)O)cc21 [Example 837] | 1.83 mL/min/kg | 29.3 nM | – | –
23 | N#Cc1ccc(COc2cccc(-c3cc(F)c(Cc4nc5ccc(C(=O)O)cc5n4C4CCCOC4)cc3F)n2)c(F)c1 (stereo not shown) [Example 838] | 4.33 mL/min/kg | 3.6 nM | – | –
24 | CC1(Cn2c(Cc3cc(F)c(-c4cccc(OCc5ccc(C#N)cc5F)n4)cc3F)nc3ccc(C(=O)O)cc32)CCOCC1 [Example 839] | 5.83 mL/min/kg | 7.04 nM | – | –
25 | N#Cc1ccc(COc2cccc(-c3cc(F)c(Cc4nc5ccc(C(=O)O)cc5n4C[C@@H]4CCCO4)cc3F)n2)c(F)c1 [Example 840] | 4.83 mL/min/kg | 1.11 nM | – | –
26 | COCCn1c(Cc2ccc(-c3cccc(OCc4ccc(C#CC(C)(C)O)cc4F)n3)cc2F)nc2ccc(C(=O)O)cc21 [Example 841] | 6.17 mL/min/kg | 164 nM | – | –
27 | COCCn1c(Cc2ccc(-c3cccc(OCc4ccc(C#Cc5cncnc5)cc4F)n3)cc2F)nc2ccc(C(=O)O)cc21 [Example 842, 2-(2-fluoro-4-(6-((2-fluoro-4-(pyrimidin-5-ylethynyl)benzyl)oxy)pyridin-2-yl)benzyl)-1-(2-methoxyethyl)-1H-benzo[d]imidazole-6-carboxylic acid] | 1.83 mL/min/kg | 4.73 nM | – | –
28 | COCCn1c(Cc2ccc(-c3cccc(OCc4ccc(C#CC5CC5)cc4F)n3)cc2F)nc2ccc(C(=O)O)cc21 [Example 843] | 2.67 mL/min/kg | 17.2 nM | – | –
29 | COCCn1c(Cc2cc(F)c(-c3cccc(OCc4ccc(C#N)cc4COC)n3)cc2F)nc2ccc(C(=O)O)cc21 [Example 844, 2-(4-(6-((4-cyano-2-(methoxymethyl)benzyl)oxy)pyridin-2-yl)-2,5-difluorobenzyl)-1-(2-methoxyethyl)-1H-benzo[d]imidazole-6-carboxylic acid] | 2.5 mL/min/kg | 13 nM | – | –
30 | COCCn1c(Cc2ccc(-c3cccc(OCc4ccc(COC)cc4F)n3)cc2F)nc2ccc(C(=O)O)cc21 [Example 845, 2-(2-fluoro-4-(6-((2-fluoro-4-(methoxymethyl)benzyl)oxy)pyridin-2-yl)benzyl)-1-(2-methoxyethyl)-1H-benzo[d]imidazole-6-carboxylic acid] | 12.3 mL/min/kg | – | 18 nM | –
31 | CCOC(=O)c1ccc2nc(Cc3cc(F)c(-c4cccc(OCc5ccc(C#N)cc5F)n4)cc3F)n(CCOC)c2c1 [Example 847, Ethyl 2-(4-(6-((4-cyano-2-fluorobenzyl)oxy)pyridin-2-yl)-2,5-difluorobenzyl)-1-(2-methoxyethyl)-1H-benzo[d]imidazole-6-carboxylate] | 6 mL/min/kg | 537 nM | – | –
32 | CC(=O)N1C[C@H](O)C[C@@H]1Cn1c(Cc2cc(F)c(-c3cccc(OCc4ccc(C#N)cc4F)n3)cc2F)nc2ccc(C(=O)O)cc21 [Example 848] | 2.83 mL/min/kg | 4.08 nM | – | –
